Test system: immortalized human sebocyte cell line, SZ95
Test: In vitro assay of inhibition of lipid synthesis
Type: cell-based
Details: 48 h, SZ95 sebocytes
Experimental: In Vitro Assay of Inhibition of Lipid Synthesis
To evaluate the inhibition of lipid synthesis, the immortalized human sebocyte cell line, SZ95 (stablished by Zouboulis, C. C. et al J Invest Dermatol 1999; 113:1011-20), was treated with arachidonic acid (AA) in presence or absence of compound. Lipids were detected by using a lipid sensing fluorophore.
Compounds were dissolved in dimethylsulfoxide (DMSO) 100%. Then the stocks were serial diluted 1/3 in DMSO 100%, and this battery of solutions were diluted 1/10 in culture medium, to minimize the percentage of the DMSO over cells.
10 k cells were plated in 384 well microtiter plates and incubated at 37° C. and 5% CO2 in DMEM/F12 supplemented with 10% FBS, 1.25 ng/ml of rhEGF and GA-1000 before of compound and stimulus addition. After 24 h, compounds dissolved in culture media were added over cells, diluting the solutions prepared 1/40 in the final volume of the assay. Then, cells and compounds were preincubated for 30 min at 37° C. and 5% CO2. After this prior incubation, the lipid synthesis was induced by 75 μM of AA final solution, preparing a solution 10× in culture media. Finally, SZ95 treated were incubated for 48 h at 37° C. and 5% CO2.
Neutral lipids were measured using AdipoRed™, purchased from LONZA. To do that, cells were washed with PBS and incubated with a solution of AdipoRed™ (final dilution 1/80 in PBS) for 30 min at room temperature. After the staining process, the fluorescence intensity (FI) was quantified using a fluorescence plate reader (excitation 485 nm; emission 535).
Activity of compounds were calculated as % of inhibition considering the maximal fluorescence for AA-stimulated cells and the minimum fluorescence for unstimulated cells as controls.

[1] = 75 μM arachidonic acid, AdipoRed, Table 2, finer classes for compounds with IC50 less than 250 nM
[2] = lipid synthesis induced by 75 μM arachidonic acid, AdipoRed fluorescence, Table 1

Structure (SMILES)	IC50 [1]	IC50 [2]
CCCCCCCCCCCCOc1c[nH]c(C(=O)OCc2oc(=O)oc2C)c1Cl [Example 88, (5-Methyl-2-oxo-1,3-dioxol-4-yl)methyl 3-chloro-4-(dodecyloxy)-1H-pyrrole-2-carboxylate]	< 50 nM	< 250 nM
CCCCCCCCCCCCCc1c[nH]c(C(=O)OCc2ccccc2)c1F [Example 26, Benzyl 3-fluoro-4-tridecyl-1H-pyrrole-2-carboxylate]	100 to 250 nM	< 250 nM
CCCCCCCCCCCCc1c[nH]c(C(=O)OCCCCCCCCCO)c1Cl [Example 59, 9-Hydroxynonyl 3-chloro-4-dodecyl-1H-pyrrole-2-carboxylate]		250 to 1000 nM
CCCCCCCCCCCCCc1c[nH]c(C(=O)O)c1C [Example 101, 3-Methyl-4-tridecyl-1H-pyrrole-2-carboxylic acid]		1000 to 5000 nM
CCCCCCCCCCCCCc1c[nH]c(C(=O)OC(C)OC(=O)OC(C)C)c1Cl (stereo not drawn) [Example 110, 1-((Isopropoxycarbonyl)oxy)ethyl 3-chloro-4-tridecyl-1H-pyrrole-2-carboxylate]	100 to 250 nM	< 250 nM
CCCCCCCCCCCCc1cc(Cl)c(C(=O)OC(C)OC(=O)OC(C)C)[nH]1 (stereo not drawn) [Example 115, 1-((Isopropoxycarbonyl)oxy)ethyl 3-chloro-5-dodecyl-1H-pyrrole-2-carboxylate]	100 to 250 nM	< 250 nM
CCCCCCCCCCCc1c[nH]c(C(=O)O)c1F [Example 13, 3-Fluoro-4-undecyl-1H-pyrrole-2-carboxylic acid]	< 50 nM	< 250 nM
CCCCCCCCCCCCOc1c[nH]c(C(=O)OC(C)OC(=O)OC(C)C)c1 (stereo not drawn) [Example 8, 1-((Isopropoxycarbonyl)oxy)ethyl 4-(dodecyloxy)-1H-pyrrole-2-carboxylate]	100 to 250 nM	< 250 nM
CCCCCCCCCCCCCc1cn(CCCC)c(C(=O)O)c1F [Example 69, 1-Butyl-3-fluoro-4-tridecyl-1H-pyrrole-2-carboxylic acid]		1000 to 5000 nM
CCCCCCCCCCCCOc1c[nH]c(C(=O)OCCN2C(=O)CCC2=O)c1 [Example 3, 2-(2,5-Dioxopyrrolidin-1-yl)ethyl 4-(dodecyloxy)-1H-pyrrole-2-carboxylate]		1000 to 5000 nM
CCCCCCCCCCCCCc1c[nH]c(C(=O)OC(C)OC(=O)OCCOC)c1Cl (stereo not drawn) [Example 111, 1-(((2-methoxyethoxy)carbonyl)oxy)ethyl 3-chloro-4-tridecyl-1H-pyrrole-2-carboxylate]	100 to 250 nM	< 250 nM
CCCCCCCCCCCCc1cc(Cl)c(C(=O)O)[nH]1 [Example 65, 3-Chloro-5-dodecyl-1H-pyrrole-2-carboxylic acid]	50 to 100 nM	< 250 nM
CCCCCCCCCCc1c[nH]c(C(=O)O)c1Cl [Example 56, 3-Chloro-4-decyl-1H-pyrrole-2-carboxylic acid]	50 to 100 nM	< 250 nM
CCCCCCCCCCCCCc1c[nH]c(C(=O)O)c1Br [Example 68, 3-Bromo-4-tridecyl-1H-pyrrole-2-carboxylic acid]		250 to 1000 nM
CCCCCCCCCCCCOc1c[nH]c(C(=O)OCCCCCCCCCO)c1Cl [Example 82, 9-Hydroxynonyl 3-chloro-4-(dodecyloxy)-1H-pyrrole-2-carboxylate]	100 to 250 nM	< 250 nM
CCCCCCCCCCCCCCCCCc1c[nH]c(C(=O)O)c1F [Example 54, 3-Fluoro-4-heptadecyl-1H-pyrrole-2-carboxylic acid]	< 50 nM	< 250 nM
CCCCCCCCCCOc1c[nH]c(C(=O)O)c1F [Example 71, 4-(Decyloxy)-3-fluoro-1H-pyrrole-2-carboxylic acid]	< 50 nM	< 250 nM
CCCCCCCCCCCCCOc1c[nH]c(C(=O)O)c1F [Example 74, 3-Fluoro-4-(tridecyloxy)-1H-pyrrole-2-carboxylic acid]	< 50 nM	< 250 nM
CCCCCCCCCCCOc1c[nH]c(C(=O)OCCOCCOCC)c1F [Example 104, 2-(2-Ethoxyethoxy)ethyl 3-fluoro-4-(undecyloxy)-1H-pyrrole-2-carboxylate]	100 to 250 nM	< 250 nM
CCCCCCCCCCCCCc1c[nH]c(C(=O)OCCCO)c1F [Example 33, 3-Hydroxypropyl 3-fluoro-4-tridecyl-1H-pyrrole-2-carboxylate]	50 to 100 nM	< 250 nM

Structure (SMILES)	IC50 [1]	IC50 [2]
CCCCCCCCCCCOc1c[nH]c(C(=O)OCC(F)(F)F)c1F [Example 103, 2,2,2-Trifluoroethyl 3-fluoro-4-(undecyloxy)-1H-pyrrole-2-carboxylate]	< 50 nM	< 250 nM
CCCCCCCCCCCCCc1c[nH]c(C(=O)OC(C)OC(=O)OCCOCCOCC)c1Cl (stereo not drawn) [Example 112, 4-Oxo-3,5,8,11-tetraoxatridecan-2-yl 3-chloro-4-tridecyl-1H-pyrrole-2-carboxylate]	100 to 250 nM	< 250 nM
CCCCCCCCCCCCCc1c[nH]c(C(=O)OC(C)OC(=O)OC2CCCCC2)c1F (stereo not drawn) [Example 47, 1-(((Cyclohexyloxy)carbonyl)oxy)ethyl 3-fluoro-4-tridecyl-1H-pyrrole-2-carboxylate]	50 to 100 nM	< 250 nM
CCCCCCCCCCCCCc1c[nH]c(C(=O)OCCO)c1F [Example 32, 2-Hydroxyethyl 3-fluoro-4-tridecyl-1H-pyrrole-2-carboxylate]		250 to 1000 nM
CCCCCCCCCCCCCc1c[nH]c(C(=O)OCCCCO)c1F [Example 34, 4-Hydroxybutyl 3-fluoro-4-tridecyl-1H-pyrrole-2-carboxylate]	100 to 250 nM	< 250 nM
CCCCCCCCCCCCCc1c[nH]c(C(=O)OCCOCCOCC)c1Cl [Example 109, 2-(2-Ethoxyethoxy)ethyl 3-chloro-4-tridecyl-1H-pyrrole-2-carboxylate]		250 to 1000 nM
CCCCCCCCCCCCOc1c[nH]c(C(=O)OCC(O)CO)c1Cl (stereo not drawn) [Example 84, 2,3-Dihydroxypropyl 3-chloro-4-(dodecyloxy)-1H-pyrrole-2-carboxylate]	100 to 250 nM	< 250 nM
CCCCCCCCCCCCc1c[nH]c(C(=O)OC(C)OC(=O)OCCOC)c1F (stereo not drawn) [Example 18, 1-(((2-Methoxyethoxy)carbonyl)oxy)ethyl 4-dodecyl-3-fluoro-1H-pyrrole-2-carboxylate]	100 to 250 nM	< 250 nM
CCCCCCCCCCCCOc1c[nH]c(C(=O)OCC(F)(F)F)c1 [Example 5, 2,2,2-Trifluoroethyl 4-(dodecyloxy)-1H-pyrrole-2-carboxylate]		250 to 1000 nM
CCCCCCCCCCCCCCC(=O)c1c[nH]c(C(=O)O)c1F [Example 91, 3-Fluoro-4-pentadecanoyl-1H-pyrrole-2-carboxylic acid]		1000 to 5000 nM
CCCCCCCCCCCCc1c[nH]c(C(=O)OC(C)OC(=O)OCCOCCOCC)c1F (stereo not drawn) [Example 19, 4-Oxo-3,5,8,11-tetraoxatridecan-2-yl 4-dodecyl-3-fluoro-1H-pyrrole-2-carboxylate]	< 50 nM	< 250 nM
CCCCCCCCCCCCOc1c[nH]c(C(=O)OCC(=O)N(C)CC(=O)OCC)c1 [Example 9, 2-((2-Ethoxy-2-oxoethyl)(methyl)amino)-2-oxoethyl 4-(dodecyloxy)-1H-pyrrole-2-carboxylate]		1000 to 5000 nM
CCCCCCCCCCCc1c[nH]c(C(=O)O)c1Cl [Example 57, 3-Chloro-4-undecyl-1H-pyrrole-2-carboxylic acid]	< 50 nM	< 250 nM
CCCCCCCCCCCCc1cc(Cl)c(C(=O)O)n1C [Example 130, 3-Chloro-5-dodecyl-1-methyl-1H-pyrrole-2-carboxylic acid]	100 to 250 nM	> 5000 nM
CCCCCCCCCCCOc1c[nH]c(C(=O)O)c1F [Example 72, 3-Fluoro-4-(undecyloxy)-1H-pyrrole-2-carboxylic acid]	< 50 nM	< 250 nM
CCCCCCCCCCCCC(F)(F)COc1c[nH]c(C(=O)O)c1F [Example 97, 4-((2,2-Difluorotetradecyl)oxy)-3-fluoro-1H-pyrrole-2-carboxylic acid]	100 to 250 nM	< 250 nM
CCCCCCCCCCCCc1c[nH]c(C(=O)OC(C)OC(=O)OC(C)C)c1F (stereo not drawn) [Example 17, 1-((Isopropoxycarbonyl)oxy)ethyl 4-dodecyl-3-fluoro-1H-pyrrole-2-carboxylate]	< 50 nM	< 250 nM
CCCCCCCCCCCCCc1c[nH]c(C(=O)O)c1F [Example 21, 3-Fluoro-4-tridecyl-1H-pyrrole-2-carboxylic acid]	< 50 nM	< 250 nM
CCCCCCCCCCCCc1cc(C#N)c(C(=O)O)[nH]1 [Example 129, 3-Cyano-5-dodecyl-1H-pyrrole-2-carboxylic acid]		1000 to 5000 nM
CCCCCCCCCCCCCc1c[nH]c(C(=O)OCC(F)(F)F)c1F [Example 27, 2,2,2-Trifluoroethyl 3-fluoro-4-tridecyl-1H-pyrrole-2-carboxylate]	< 50 nM	< 250 nM
